Experimental data published in PMC6066528 (Frontiers in Pharmacology, 2018).

How the values were obtained:
beta-blocking activity = tested on: beta-blocking activity; parameters: method as in Regardh et al., 1974; details: both active metabolites together; ref Regardh et al., 1974; cited from earlier work
[1] = cited from earlier work
[2] = target: recombinant human CYP3A4 supersomes (Homo sapiens, UniProt P08684)
Method: (§1) Microsomes and supersomes were stored at −80°C until used.
(§2) For inhibition studies, the reaction mixture was pre-incubated with the specific inhibitors (concentrations indicated in the figures) for 10 min prior to the addition of test compounds and NADPH. […] Following the incubation in the absence (control) or presence of inhibitors, the reactions were terminated at selected time-points by transferring 50 μL of the incubation mixture into a matrix autosampler vial, to which a threefold volume of ice-cold methanol (containing the internal standards) was added. […] The formation rate (pmol/min/pmol P450) in the absence and the presence of the inhibitors was calculated from the linear parts of the concentration-time curves and expressed as an absolute value or as a percentage relative to the control values.
(§3) Chromatographic separation was performed on a Shimadzu HPLC system (Shimadzu AG, Reinach, Switzerland), coupled to a triple quadrupole tandem mass spectrometer (API4000 or API5500, AB/MDS Sciex, Concord, Canada), operating in positive electrospray ionization mode.
(§4) The CYP activities were determined as the respective metabolite formation rates corresponding to the slope in the metabolite concentration versus time graphs.

CYP3A4 = assay: Metoprolol metabolism by human liver microsomes with ketoconazole; assay type: in vitro ADME; details: pooled human liver microsomes, pH 7.4, probe metoprolol 25 μM
Method: as §1, §2, §3, §4

[3] = Metoprolol metabolism by human liver microsomes without inhibitor; assay type: in vitro ADME; details: inhibition studies using human liver microsomes; mean ± 95%CI
Method: as §1, §2, §3, §4

CYP2D6 [4] = target: T1, CYP2D6 (Homo sapiens, UniProt P10635); details: ref Johnson and Burlew, 1996; cited from earlier work
T1 sequence (P10635 whole entry): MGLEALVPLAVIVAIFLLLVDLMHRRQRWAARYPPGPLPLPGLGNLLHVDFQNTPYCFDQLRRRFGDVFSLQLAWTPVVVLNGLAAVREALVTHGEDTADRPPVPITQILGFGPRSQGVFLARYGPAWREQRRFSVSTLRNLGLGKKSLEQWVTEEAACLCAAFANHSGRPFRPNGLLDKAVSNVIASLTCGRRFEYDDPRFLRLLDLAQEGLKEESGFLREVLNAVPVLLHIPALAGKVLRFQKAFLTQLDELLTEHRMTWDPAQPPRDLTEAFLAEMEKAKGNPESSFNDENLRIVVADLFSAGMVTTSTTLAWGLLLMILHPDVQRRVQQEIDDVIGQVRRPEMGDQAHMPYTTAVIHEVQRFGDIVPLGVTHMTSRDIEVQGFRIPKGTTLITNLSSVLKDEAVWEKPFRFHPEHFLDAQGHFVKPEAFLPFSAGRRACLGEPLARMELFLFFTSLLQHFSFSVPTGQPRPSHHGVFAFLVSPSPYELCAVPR

[5] = In vivo assessment of CYP induction (Basel phenotyping cocktail before and after rifampicin); details: 15 healthy volunteers, rifampicin 600 mg per day for 7 days
Method: We used the ratio between the induced and the basal state of the Cl/F of midazolam as a marker of CYP3A4 induction.
Experiments were carried out 5 times unless stated otherwise. Means were compared with the two-tailed Student’s t-test using GraphPad Prism 6.0 (GraphPad Software, San Diego, CA, United States). Data are presented as mean ± SD unless stated otherwise. Induction levels above twofold with statistically significant differences (p < 0.05) were considered relevant.

CYP2D6 [6] = target: T1, CYP2D6; details: primary human hepatocytes; without reaching statistical significance; ref Madan et al., 2003; cited from earlier work
CYP2D6 [7] = target: T1, CYP2D6; assay: Metoprolol metabolism by human liver microsomes with quinidine
Method: as §1, §2, §3, §4

CYP2D6 [8] = target: T1, CYP2D6; parameters: Pooled human liver microsomes (HLM; Lot #38289); tissue Corning Life science Lot #38289; host or cells: pooled human liver microsomes; method as in Glaeser et al., 2005; details: enterocytes of human subjects; 600 mg rifampicin for 10 days; without reaching statistical significance; ref Glaeser et al., 2005; cited from earlier work
[9] = tested on: primary human hepatocytes
Method: Experimental control culture wells were treated with solvent [DMSO, 0.1% (v/v)] alone. […] The bottoms of the wells were scraped using a pipette tip, after which the contents were transferred to an autosampler vial.
as §3, §4
For induction experiments, metabolite formation rates were determined as described above, and the fold change versus the basal conditions was calculated as the ratio of the metabolite formation rate in wells exposed to an inducer versus formation rates in control wells.

CYP2D6 mRNA [10] = assay: rt-PCR quantification of CYP2D6 mRNA in primary human hepatocytes after rifampicin; assay type: cell-based; details: primary human hepatocytes Lot #Hu8119; rifampicin 20 μM 48 h
Method: Primary cryopreserved human hepatocytes (Life Technologies, Lot #Hu8119 and Lot #Hu8124) were plated at 0.05 × 10^6 cells/well in collagen type-1 precoated 96-well plates (or 0.25 × 10^6 cells/well in 24-well plates) in William’s E medium supplemented with 10% FCS (v/v), 1% L-glutamine 200 mM (v/v), 1% Pen Strep (v/v), 0.1% dexamethasone 100 μM (v/v), and 0.1% insulin 100 μM (v/v), and then incubated at 37°C in the presence of 5% CO2 and 95% humid air.
(§5) A total of 350 μL of RLT buffer (Qiagen, Hombrechtikon, Switzerland) was used to lyse the respective liver cell models, after which the lysate was transferred to Qiashredder columns and centrifuged for 2 min at 13,000 rpm. From the eluate, total RNA was extracted and purified according to the manufacturer’s instructions (Qiagen, RNeasy mini extraction kit). The concentration of the extracted RNA was measured spectrophotometrically at 260 nm on a NanoDrop 2000 (Thermo Fisher Scientific, Wohlen, Switzerland). cDNA was reverse transcribed from the isolated RNA using the Qiagen omniscript system. For quantitative rt-PCR, 10 ng cDNA was used. […] Quantification of mRNA expression levels was performed using the comparative-threshold cycle method ([Livak and Schmittgen, 2001]).

CYP2D6 mRNA [11] = assay: rt-PCR quantification of CYP2D6 mRNA in HepaRG cells after rifampicin; assay type: cell-based, human
Method: HepaRG cells were purchased from Biopredic International (Rennes, France) as undifferentiated cryopreserved cells with the associated medium. Freshly split HepaRG cells were seeded at 9000 cells/well in 96-well plates (or 0.05 × 10^6 cells/well in 24-well plates) and treated over the course of the next 4 weeks as previously described ([Aninat et al., 2006]).
as §5

recombinant human CYP3A4 supersomes, sequence (P08684 whole entry): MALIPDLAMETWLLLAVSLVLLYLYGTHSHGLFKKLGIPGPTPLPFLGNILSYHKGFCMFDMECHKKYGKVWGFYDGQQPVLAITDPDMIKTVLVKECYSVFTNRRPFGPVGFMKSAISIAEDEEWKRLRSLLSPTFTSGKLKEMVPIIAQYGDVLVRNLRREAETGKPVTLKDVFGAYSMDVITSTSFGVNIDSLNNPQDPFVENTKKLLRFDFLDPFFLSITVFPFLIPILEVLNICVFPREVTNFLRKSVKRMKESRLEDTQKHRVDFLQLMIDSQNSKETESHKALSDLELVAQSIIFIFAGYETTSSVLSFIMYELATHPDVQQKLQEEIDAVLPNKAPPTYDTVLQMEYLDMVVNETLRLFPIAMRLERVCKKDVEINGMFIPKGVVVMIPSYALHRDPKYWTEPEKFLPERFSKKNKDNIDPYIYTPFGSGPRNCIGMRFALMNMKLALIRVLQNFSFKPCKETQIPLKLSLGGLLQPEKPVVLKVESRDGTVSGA

For `CC(C)NCC(O)COc1ccc(CCO)cc1` (centres unmarked) [O-demethylmetoprolol], the “contribution to the total beta-blocking activity of metoprolol” value (beta-blocking activity) is given as “approximately 10%”.
For `COCCc1ccc(OC[C@H](O)CNC(C)C)cc1` [R-metoprolol], the “clearance higher than that of S-metoprolol” value ([1]; human, in vivo) is listed as 40%.
For `COc1ccc2c(c1)[C@]13CCCC[C@@H]1[C@H](C2)N(C)CC3` [dextromethorphan], the conversion to dextrorphan ([2]; rhCYP3A4 supersomes, check for CYP2D6 activity, data not shown) was “not quantifiable”.
With `CC(=O)N1CCN(c2ccc(OCC3COC(Cn4ccnc4)(c4ccc(Cl)cc4Cl)O3)cc2)CC1` (centres unmarked) [ketoconazole] the inhibition at 1 μM (CYP3A4) was 9.9 to 17.5%.
For `COCCc1ccc(OCC(O)CNC(C)C)cc1` (centres unmarked) [metoprolol], the “contribution of CYP3A4, 2B6, and 2C9 together to N-dealkylation of metoprolol” value [3] was 7.6 ± 1.7%, the “contribution of CYP3A4, 2B6, and 2C9 together to O-demethylation of metoprolol” value [3] was 19.0 ± 2.6% and the “contribution of CYP3A4, 2B6, and 2C9 together to α-hydroxylation of metoprolol” value [3] was 4.0 ± 0.7%. For the same compound, the “part of orally administered metoprolol metabolized by CYP2D6” value (CYP2D6 [4]) was “Approximately 70%” and the bioavailability ([1]; oral, ref Regardh and Johnsson, 1980) was “approximately 50%”.
In the case of `Cc1ncc2n1-c1ccc(Cl)cc1C(c1ccccc1F)=NC2` [midazolam], the “clearance of midazolam after rifampicin” value ([5]; 2 mg midazolam, all subjects) is reported as “increase” and the “formation of 1′-OH-midazolam from midazolam by CYP3A4 overexpressing supersomes” value ([2]; recombinant enzyme) is reported as “rapid”.
For `CCC1(c2ccccc2)C(=O)NC(=O)NC1=O` [phenobarbital], the “increase of the activity of dextromethorphan O-demethylation” value (CYP2D6 [6]) is given as “almost identical effect”.
With `C=C[C@H]1C[N@@]2CC[C@H]1C[C@@H]2[C@@H](O)c1ccnc2ccc(OC)cc12` [quinidine] the “block of formation of the phenylacetate metabolite from O-demethylated metoprolol” value (CYP2D6 [7]; HLM, quinidine 1 μM) was “blocked completely” and the activity at 1 μM (CYP2D6 [7]; human, pooled human liver microsomes, pH 7.4, probe metoprolol 25 μM) was 8%.
In the case of `CO[C@H]1/C=C/O[C@@]2(C)Oc3c(C)c(O)c4c(O)c(c(/C=N/N5CCN(C)CC5)c(O)c4c3C2=O)NC(=O)/C(C)=C\C=C\[C@H](C)[C@H](O)[C@@H](C)[C@@H](O)[C@@H](C)[C@H](OC(C)=O)[C@@H]1C` [rifampicin], the “increase of CYP2D6 protein expression” value (CYP2D6 [8]) is listed as 1.6 factor, the “increase in O-demethylation of metoprolol” value ([9]; primary human hepatocytes Lot #Hu8124, rifampicin 20 μM 48 h) is listed as 1.4 factor and the “increase in production of α-OH-metoprolol” value ([9]; primary human hepatocytes treated with rifampicin (Figure 3D, lot #Hu8124)) is listed as 75%. The “increase of the activity of dextromethorphan O-demethylation” value (CYP2D6 [6]) was 1.3 factor, the “CYP2D6 mRNA expression levels” value (CYP2D6 mRNA [10]) was “no increase” and the “induction of CYP2D6 mRNA” value (CYP2D6 mRNA [11]; HepaRG cells, rifampicin 20 μM for 48 h) was “not induced”. For the same compound, the “effect on CYP2D6 mRNA” value (CYP2D6 mRNA [11]; both cell models (HepaRG cells and primary human hepatocytes), 20 μM rifampicin) was “not affected”.
For `COCC(O)c1ccc(OCC(O)CNC(C)C)cc1` (stereo not drawn) [α-OH-metoprolol], the “contribution to the total beta-blocking activity of metoprolol” value (beta-blocking activity) is listed as “approximately 10%” and the “increase in α-OH-metoprolol formation / AUC after rifampicin” value ([5]; 12.5 mg metoprolol oral, statistically not significant) is listed as 9%.
